# Measurements from article PMC3602187, “From Design to Screening: A New Antimicrobial Peptide Discovery Pipeline” (PLoS ONE, 2013).
# System: Listeria innocua 33090
# Experiment: colony overlay assay of peptide-secreting E. coli clones (library screening and re-test)
# Type: cell-based
# Design: key: higher activity group (H); equal activity group (E); lower activity group (L)
# Details: library screening; selected colonies pooled by zone size; peptides identified by 454 sequencing, full-length sequences with minimum 20 reads
# Description: For the in vivo production of AMPs, we have employed an E. coli expression system that relies on periplasmic-expression of recombinant peptides in a host cell that lacks the lpo membrane protein, thus releasing the peptides present in the periplasmic space outside the cells. When the producer cells are grown into colonies on a solid substrate, it leads to accumulation of the recombinant peptides around the colony and allows for easy library screening. The screening assay used in this study was a modified version of the standard agar diffusion method as previously described. Library-transformed E. coli colonies are overlaid with a tester strain and incubated overnight to allow for peptide expression and tester strain growth. Next day, the plates are inspected for the formation of clear growth inhibition zones around E. coli colonies, which is an indication of active AMP production by the host colony.
# For the construction of Pln-423 mutant library in E. coli, the expression system that consists of a periplasmic-leaky E. coli strain JE5505 and the expression plasmid pFLAG-CTS was employed for direct screening of peptide activities. It should be noted here that this plasmid contains ompA secretion signal sequence and cleavage of this sequence results in a serine residue at the N-terminal of all mature peptides. A total of 1.0×10^5 colonies, approximately 8-fold coverage of the library, were screened against Listeria innocua 33090 in five separate screening experiments. L. innocua was previously deemed as a suitable indicator for pathogenic L. monocytogenes displaying similar bacteriocin sensitivity, therefore it was used as a surrogate strain throughout this study. The selection process involved two criteria; 1) the size of the each inhibition zone was compared to that of wild-type Pln-423 as a correlation to anti-listerial activity level, 2) when several colonies formed inhibition zones that are very similar in size and character, only a few from each group were selected. The colonies were pooled into three groups based on their activities, giving 43 clones in a higher activity group (H), 81 clones in an equal activity group (E), and 241 clones in a lower activity group (L). Their plasmids were extracted from each activity group and analyzed by both Sanger and 454 high-throughput sequencing to identify peptide sequences.
# These clones were also re-tested by colony overlay assay to compare their activities to wild-type Pln-423 based on the size of the inhibition zone around each clone (Figure 2-A). Based on this assay, all ten plantaricin mutants formed larger inhibition zones (10.3±0.5 to 11.4±0.3 mm zone diameter) compared to wild-type Pln-423 (6.2±0.2 mm) against L. innocua 33090. Out of those ten, three clones have a single mutation and […] clones have two mutations and the remaining single clone has three mutations. […] Positions like Ser23, Ser27, His28, and Lys36 were commonly mutated with similar amino acids indicating their potential role on higher peptide activity.
# The screening method used in this study was a modified version of the standard colony overlay method as previously described. All the chemicals and growth media supplements were obtained from either Sigma-Aldrich or Fisher Scientific unless otherwise stated. Transformed E. coli JE5505 cells were diluted to 3000–5000 cfu (determined empirically prior to screening by plating serial dilutions of E. coli suspensions of a known absorbance and counting the colonies after incubation) in 25 ml LB soft agar (0.8%, 45°C) per screening plate and poured into 150 mm petri dishes. Once the media was solidified, they were overlaid with 10 ml LB soft agar (45°C) and incubated at 37°C for 24 h for host-colony formation. Next day, these plates were re-overlaid with 10 ml TSB soft agar containing 1 mM IPTG and the indicator strain Listeria innocua ATCC 33090 (diluted to OD600 = 0.03). […]
row,Substance,activity group by size of inhibition zone compared to wild-type Pln-423
1,KYYGNGVTCGKHSCSVNWGEAFSCSVSHLANYGHGKC* [GROUP E-UM-2],E
2,KYYGNGVTCGKHSCSVNWGQAFSCSVCHMANFGHGKC* [Pep-2_7542],L
3,KYYGNGVTCGKHSCSVNWGVAFSCSVSHLANFGHGWC* [Pep-2_1758],L
4,KYYGNGVTCGKHSCSVNWGQAFSCAVSALANFGHGKC* [Pep-2_5057],L
5,KYYGNGVTCGKHSCSVNWGQAFSCSVSHLANMGHGKC* [Pep-1_88],H
6,KYYGNGVTCGKHSCSVNWGQAFSCSVSRVANFGHGKC* [Pep-2_6574],L
7,KYYGNGVTCGKHSCSVNWGQAFSCSVSHLANFGWGKC* [Pep-1_102],L
8,KYYGNGVTCGKHSCSVNWGQAFSCSVTHLANFGHGKC* [Pep-1_57],L and E
9,KYYGNGVTCGKHSCSVNWGQAFKCSVSLLANFGHGKC* [Pep-2_3328],L
10,KYYGNGVTCGKHSCSVNWGQAFSCRVEHLANFGHGKC* [Pep-2_6013],L
11,KYYGNGVTCGKHSCSVNWGQAFSCSVSHMANFGHGKC* [Pep-1_70],L
12,KYYGNGVTCGKHSCSVNWGQAFACSVSHLANFGFGKC* [GROUP L-UM-23],L
13,KYYGNGVTCGKHSCSVNWGQAFSCSVSHLAWFGHGHC* [Pep-2_9097],L
14,KYYGNGVTCGKHSCSVNWGLAFSCSVSNLANFGHGKC* [Pep-2_6742],L
15,KYYGNGVTCGKHSCSVNWGQAFSCSVEHLANFGHNKC* [Pep-2_11318],H
16,KYYGNGVTCGKHSCSVNWGQAFSCVVRHLANFGHGKC* [Pep-2_4939],L
17,KYYGNGVTCGKHSCSVNWGQAFSCSVTHLANFGLGKC* [Pep-2_6172],E
18,KYYGNGVTCGKHSCSVNWGQAVSCSVSHLANFGHGKC* [Pep-1_28],E
19,KYYGNGVTCGKHSCSVNWGQAFSCSVSHLANFGKGKC* [GROUP L-UM-11],L

row,Substance,activity group by size of inhibition zone compared to wild-type Pln-423
1,KYYGNGVTCGKHSCSVNWGQAFSCSTSHLANFGHGKC* [GROUP E-UM-4],E
2,KYYGNGVTCGKHSCSVNWGQAFSCAFSHLANFGHGKC* [Pep-2_5044],L
3,KYYGNGVTCGKHSCSVNWGQAFSCSVIALANFGHGKC* [Pep-2_7000],L
4,KYYGNGVTCGKHSCSVNWGQAFSCSVEHLANFGHIKC* [Pep-2_6070],L
5,KYYGNGVTCGKHSCSVNWGQAFSCSVSHLANFSHGKC* [GROUP L-UM-18],L
6,KYYGNGVTCGKHSCSVNWGQAFSCSVSSLANFGHGKC* [GROUP E-UM-3],E
7,KYYGNGVTCGKHSCSVNWGQAFSCSVEHLANFGHGHC* [Pep-2_6073],E
8,KYYGNGVTCGKHSCSVNWGQAFSCSVSWLANFGSGKC* [Pep-2_10680],L
9,KYYGNGVTCGKHSCSVNWGPAFSCSVSRLANFGHGKC* [Pep-2_6528],L
10,KYYGNGVTCGKHSCSVNWGQAFSCSVGVLANFGHMHC* [GROUP L-UM-19],L
11,KYYGNGVTCDKHSCSVNWGQAFKCSVDHLANFGHGKC* [GROUP H-UM-4],H
12,KYYGNGVTCGKHSCSVNWGQAFNCSVENLANFGHGKC* [GROUP H-UM-3],H
13,KYYGNGVTCGKHSCSVNWGQVFSCSVSHLANFGHGHC* [Pep-2_11716],L
14,KYYGNGVTCGKHSCSVNWGQAFSCSVSHLANFGIGLC* [GROUP L-UM-3],L
15,KYYGNGVTCGKHSCSVNWGQAFACSVSHLANFGHGKC* [Pep-1_35],E
16,KYYGNGVTCGKHSCSVNWGQAFSCSVSVLANFGNGKC* [Pep-2_6927],H
17,KYYGNGVTCGKHSCSVNWGQAFSCRVSHLANFGHGKC* [GROUP L-UM-13],L
18,KYYGNGVTCGKHSCSVNWGQAFSCSVSHLANFGSGKC* [Pep-1_99],E
19,KYYGNGVTCGKHSCSVNWGQAFSCSVHHLANFGHGKC* [Pep-1_55],L

row,Substance,activity group by size of inhibition zone compared to wild-type Pln-423
1,KYYGNGVTCGKHSCSVNYGQAFSCSVSHLANFGHGAC* [Pep-2_335],E
2,KYYGNGVTCGKHSCSVNWGQAFSCSASHLANFGHGKC* [Pep-1_53],L
3,KYYGNGVTCGKHSCSVNWGQAFSCSVSHLANFGHNWC* [Pep-2_12339],E
4,KYYGNGVTCGKHSCSVNWGQAFSCSVSHLANFGHDKC* [GROUP E-UM-9],E
5,KYYGNGVTCGKHSCSVNWGAAFSCAVSHLANFGHGKC* [Pep-2_5015],L
6,KYYGNGVTCGKHSCSVNWGGALSCSVSHLANFGHGKC* [Pep-2_1780],L
7,KYYGNGVTCGKHSCSVNWGQAFSCHVDHLANFGHGKC* [Pep-2_4616],E
8,KYYGNGVTCGKHSCSVNWGQAFSCSVSHLANFGHAKC* [Pep-1_107],L
9,KYYGNGVTCGKHSCSVNWGQAFECSVSHLANFGHNKC* [Pep-2_3477],L
10,KYYGNGVTCGKHSCSVNWGQAFSCSVSHLANFGFGWC* [Pep-2_12334],L
11,KYYGNGVTCGKHSCSVNWGQAFSCSVSHLAKFGHGKC* [Pep-1_81],L
12,KYYGNGVTCGKHSCSVNWGQAFSCSVSHFANFGHGKC* [GROUP E-UM-8],E
13,KYYGNGVTCGKHSCSVNWGQAFSCGVSHLANMGHGKC* [Pep-2_9473],H
14,KYYGNGVTCGKHSCSVNWGQAFSCSVSHLANFGRGKC* [Pep-1_97],L
15,KYYGNGVTCGKHSCSVNWGQAFSCSVVHLANFGHGKC* [Pep-1_58],L and E
16,KYYGNGVTCGKHSCSVNWGQAFVCSVDHLANFGHGKC* [Pep-2_3644],E
17,KYYGNGVTCGKHSCSVNWGQAFSCYMSHLANFGHGAC* [GROUP L-UM-9],L
18,KYYGNGVTCGKHSCSVNWGTAFSCSISHLANFGHGKC* [Pep-2_1588],E
19,KYYGNGVTCGKHSCSVNWGQAFWCSVSKLANFGHGKC* [Pep-2_3865],L
